These results are taken from patent US12384769B2, “Heteroaryl-substituted aminoalkyl azole compounds as pesticides” (Elanco Animal Health GmbH, priority 2019, dated 2025).

As usually defined, the mortality is the percentage killed.

Type in all cases: in vivo
Experiment [1] relates to Spodoptera frugiperda. The experiment is described as follows: Spodoptera frugiperda spray test. The following applies: in Zea mays, 168 h, read-out: activity (mortality). A digest of the protocol:
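Larvae of fall armyworm placed on dried maize leaf sections previously sprayed with emulsified compound (acetone/DMF solvent, water with 1000 ppm emulsifier). Percent of caterpillars killed recorded on day 7, 0–100% scale.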

Experiment [2] has as its system Rhipicephalus sanguineus. The experiment in a line: Rhipicephalus sanguineus in-vitro contact test, adult brown dog ticks (RHIPSA Contact). The following applies: 5 μg/cm^2 (=500 g/ha), after 48 hours, read-out: activity (efficacy, ticks dead or moribund). A digest of the protocol:
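Acetone solution coated onto glass tube walls; 900 ppm gives 5 μg/cm^2. After drying, 5-10 adult ticks per tube kept at room temperature for 48 h, then placed on a 45-50° C heating plate up to 5 min; ticks unable to climb away counted dead or moribund, efficacy as % affected.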

For experiment [3], the system named is Aedes aegypti strain MONHEIM. The experiment is described as follows: Aedes aegypti test (AEDSAE surface treatment & contact assay). The conditions noted are these: 30 minutes exposure, 24 hours after contact, read-out: efficacy (mortality).

Take `C[C@H](Nc1nc2cc(C(F)(F)F)c(Cl)cc2o1)c1ncnn1-c1ncccn1` [Example I-001, 6-chloro-N-{(1S)-1-[1-(pyrimidin-2-yl)-1H-1,2,4-triazol-5-yl]ethyl}-5-(trifluoromethyl)-1,3-benzoxazol-2-amine]: in experiment [1], the mortality at 100 g/ha turned out to be 100% and the mortality at 500 g/ha stood at 100%. In experiment [2], the pest or weed control at 5 µg/cm2, 5 µg/cm2 was 100%. The mortality at 4 mg/m2 in experiment [3] (surface concentration 4 mg/m^2, glazed tile) was 85 to 100%. In experiment [3] (surface concentration 20 mg/m^2, glazed tile), the mortality at 20 mg/m2 was in the range of 90 to 100%.
